What follows are compounds tested against T1, human HPK1 protein (Homo sapiens, UniProt Q92918) (assay: Human HPK1 protein TR-FRET assay). Settings: 1 mM ATP, Table 19.
T1 construct: recombinant human HPK1 protein (a.a. 1-346) was expressed in Sf9 insect cells; GST (N); purchased Signalchem M23-11G; host or cells: Sf9 insect cells (baculovirus)
T1 sequence (Q92918 1-346): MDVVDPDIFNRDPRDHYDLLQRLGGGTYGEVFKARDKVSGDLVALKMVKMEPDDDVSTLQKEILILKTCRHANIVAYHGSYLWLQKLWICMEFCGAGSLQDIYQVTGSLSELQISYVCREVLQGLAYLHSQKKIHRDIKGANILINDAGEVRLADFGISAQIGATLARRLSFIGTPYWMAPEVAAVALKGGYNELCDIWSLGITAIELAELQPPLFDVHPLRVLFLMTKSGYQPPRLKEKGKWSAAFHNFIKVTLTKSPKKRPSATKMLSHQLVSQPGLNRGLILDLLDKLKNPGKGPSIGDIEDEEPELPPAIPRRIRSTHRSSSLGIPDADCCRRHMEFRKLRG
Assay type: biochemical
In short: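 Read-out was TR-FRET using Eu-labeled anti-phospho-CREB (Ser133) antibody, with the 665/615 nm signal ratio normalised to DMSO-only wells and fitted by a 4-parameter logistic model for IC50. Reactions held 10 nM Sf9-expressed GST-HPK1 (a.a. 1-346), 100 nM CREBtide and 1 mM ATP, run 60 minutes at room temperature, pH 7.5.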
With `CCN1CCN(Cc2ccc(NC(=O)N3Cc4cc(Oc5ccnc6[nH]c(C)cc56)ccc4C(C)C3)cc2C(F)(F)F)CC1` (stereo not shown) [IV-18] the IC50 was less than 500 nM.
`CCN1CCN(Cc2ccc(NC(=O)N3CCc4ccc(Oc5ccnc6[nH]ccc56)cc4C3C)cc2C(F)(F)F)CC1` (stereo not shown) [IV-1] was tested, and the IC50 was 500 to 5000 nM.
With `CCN1CCN(Cc2ccc(NC(=O)N3CCc4ncc(Oc5ncnc6[nH]ccc56)cc4C3)cc2C(F)(F)F)CC1` [VII-2] the IC50 was 500 to 5000 nM.
For `CCC1CN(C(=O)Nc2ccc(CN3CCN(CC)CC3)c(C(F)(F)F)c2)Cc2cc(Oc3ccnc4[nH]c(C)cc34)cnc21` (single isomer, unassigned) [VII-22], the IC50 was less than 500 nM.
With `CCN1CCN(Cc2ccc(NC(=O)N3CCc4ccc(Oc5ccnn6cc(-c7cnn(C)c7)cc56)cc4C3)cc2C(F)(F)F)CC1` [II-26] the IC50 was less than 500 nM.
With `CCN1CCN(Cc2ccc(NC(=O)C3CCc4ccc(Oc5cc(NC)ncn5)cc4C3)cc2C(F)(F)F)CC1` (stereo not shown) [compound 12, N-(4-((4-ethylpiperazin-1-yl)methyl)-3-(trifluoromethyl)phenyl)-7-((6-(methylamino)pyrimidin-4-yl)oxy)-1,2,3,4-tetrahydronaphthalene-2-carboxamide] the IC50 was 500 to 5000 nM.
For `Cc1cc2c(Oc3ccc4c(c3)[C@H](C)N(C(=O)Nc3cnc(OC5CCN(C)CC5O)c(C(F)(F)F)c3)CC4)ccnc2[nH]1` (stereo in doubt) [VI-8], the IC50 was less than 500 nM.
With `C[C@H]1c2cc(Oc3ccnc4[nH]ccc34)ccc2CCN1C(=O)Nc1ccc(OC2CCNCC2)c(C(F)F)c1` [V-14] the IC50 was 500 to 5000 nM.
With `CCN1CCN(Cc2ccc(NC(=O)N3CCc4c(F)cc(Oc5ccnc6[nH]ccc56)cc4C3C)cc2C(F)(F)F)CC1` (stereo not shown) [IV-16] the IC50 was 500 to 5000 nM.
`CCCC1CN(C(=O)Nc2ccc(CN3CCN(CC)CC3)c(C(F)(F)F)c2)Cc2cc(Oc3ccnc4[nH]c(C)cc34)ccc21` (stereo not shown) [IV-37] gave an IC50 of less than 500 nM.
In the case of `CCN1CCN(Cc2ccc(NC(=O)N3CCc4ncc(Oc5ccnc6[nH]ncc56)cc4C3C)cc2C(F)(F)F)CC1` (single isomer, unassigned) [VIII-5], the IC50 is reported as 500 to 5000 nM.
Compound `CCN1CCN(Cc2ccc(NC(=O)N3CCc4ccc(Oc5cc(Nc6ncc[nH]6)ncn5)cc4C3)cc2C(F)(F)F)CC1` [II-17] has an IC50 of less than 500 nM.
`CCN1CCN(Cc2ccc(NC(=O)N3CCc4ccc(Oc5ccnc6[nH]ccc56)c(C)c4C3)cc2C(F)(F)F)CC1` [III-2] was tested, and the IC50 was less than 500 nM.
Work on `CCN1CCN(Cc2ccc(NC(=O)C3CCc4ccc(Oc5ccnc6[nH]c(C)cc56)cc4N3)cc2C(F)(F)F)CC1` (stereo not shown) [compound 15, N-(4-((4-ethylpiperazin-1-yl)methyl)-3-(trifluoromethyl)phenyl)-7-((2-methyl-1H-pyrrolo[2,3-b]pyridin-4-yl)oxy)-1,2,3,4-tetrahydroquinoline-2-carboxamide] yielded an IC50 of less than 500 nM.
`CCN1CCN(Cc2ccc(NC(=O)N3Cc4cc(Oc5ccnc6[nH]c(C)cc56)cnc4C(C)C3)cc2C(F)(F)F)CC1` (single isomer, unassigned) [VII-5] gave an IC50 of less than 500 nM.
For `CCN1CCN(Cc2ccc(NC(=O)N3CCc4ccc(Oc5ccnc6[nH]ncc56)cc4C3)cc2C(F)(F)F)CC1` [II-4], the IC50 was less than 500 nM.
In the case of `CCN1CCN(Cc2ccc(NC(=O)N3CCc4ccc(Oc5ncnn6cc(F)cc56)cc4C3)cc2C(F)(F)F)CC1` [II-8], the IC50 is reported as less than 500 nM.
`CCN1CCN(Cc2ccc(NC(=O)N3CCc4cc(C)c(Oc5ccnc6[nH]ccc56)cc4C3)cc2C(F)(F)F)CC1` [III-1] showed an IC50 of less than 500 nM.
`Cc1cc2c(Oc3ccc4c(c3)[C@H](C)N(C(=O)Nc3cnc(OCCn5ccnc5)c(C(F)(F)F)c3)CC4)ccnc2[nH]1` [VI-17] gave an IC50 of 500 to 5000 nM.
`CCN1CCN(Cc2ccc(NC(=O)N3Cc4cc(Oc5ccnc6[nH]ncc56)cnc4C(C)C3)cc2C(F)(F)F)CC1` (stereo not shown) [VII-17] showed an IC50 of less than 500 nM.
For `Cc1cc2c(Oc3cnc4c(c3)CN(C(=O)Nc3cnc(OC5CCN(C)CC5O)c(C(F)(F)F)c3)CC4C)ccnc2[nH]1` (stereo not shown) [VII-19], the IC50 was less than 500 nM.
Work on `Cc1cc2c(Oc3ccc4c(c3)CN(C(=O)Nc3cnc(OC5CCN(C)CC5)c(C(F)(F)F)c3)CC4C)ccnc2[nH]1` (stereo not shown) [IV-38] yielded an IC50 of less than 500 nM.

Same assay, conditions: 1 mM ATP, Table 20
For `CC[C@H]1CN(C(=O)Nc2ccc(CN3CCN(C)CC3)c(C(F)(F)F)c2)Cc2cc(Oc3ccnc4[nH]c(C(=O)N(C)C)cc34)cnc21` [compound 21, (8S)-3-[[2-(dimethylcarbamoyl)-1H-pyrrolo[2,3-b]pyridin-4-yl]oxy]-8-ethyl-N-[4-[(4-methylpiperazin-1-yl)methyl]-3-(trifluoromethyl)phenyl]-7,8-dihydro-5H-1,6-naphthyridine-6-carboxamide], the IC50 was less than 500 nM.
`C=C(C)c1cc2c(Oc3cnc4c(c3)CN(C(=O)Nc3ccc(CN5CCN(C)CC5)c(C(F)(F)F)c3)C[C@@H]4CC)ccnc2[nH]1` [XIV-152] gave an IC50 of less than 500 nM.
`CC[C@@H]1CN(C(=O)Nc2ccc(CN3CCN(CCO)CC3)c(C(F)F)c2)Cc2cc(Oc3ncnc4[nH]c(C5CC5)cc34)ccc21` [XV-42] was tested, and the IC50 was less than 500 nM.
`CC[C@H]1CN(C(=O)Nc2ccc(CN3CCNCC3)c(C(F)(F)F)c2)Cc2cc(Oc3ncnc4[nH]c(C(=O)N(C)C)cc34)cnc21` [XIV-126] was tested, and the IC50 was less than 500 nM.
`CC[C@@H]1CN(C(=O)Nc2ccc(CN3CCNCC3)c(C(F)(F)F)c2)Cc2cc(Oc3ccnc4[nH]c(C#N)cc34)ccc21` [XV-16] was tested, and the IC50 was less than 500 nM.
With `CCN1CCN(Cc2ccc(NC(=O)N3Cc4cc(Oc5c(F)cnc6[nH]c(CO)cc56)cnc4[C@@H](C)C3)cc2C(F)(F)F)CC1` [XIV-95] the IC50 was less than 500 nM.
With `CN1CCN(Cc2ccc(NC(=O)N3CCc4ccc(Oc5c(F)cnc6[nH]c(-c7cn[nH]c7)cc56)cc4C3)cc2C(F)(F)F)CC1` [XII-9] the IC50 was less than 500 nM.
In the case of `CN1CCN(Cc2ncc(NC(=O)N3CCc4ccc(Nc5c(F)cnc6[nH]c(-c7cnn(C)c7)cc56)cc4C3)cc2C(F)(F)F)CC1` [XVII-2], the IC50 is reported as less than 500 nM.
With `CN1CCC(Oc2ncc(NC(=O)N3CCc4ccc(Oc5c(F)cnc6[nH]c(-c7cnn(C)c7)cc56)cc4C3)cc2C(F)(F)F)CC1` [XII-13] the IC50 was less than 500 nM.
With `CC[C@H]1CN(C(=O)Nc2ccc(CN3CCNCC3)c(C(F)(F)F)c2)Cc2cc(Oc3ccnc4[nH]c(-c5noc(=O)[nH]5)cc34)cnc21` [XIV-135] the IC50 was less than 500 nM.
`CC[C@@H]1CN(C(=O)Nc2ccc(CN3CCN(C)CC3)c(C(F)F)c2)Cc2cc(Oc3ccnc4[nH]c(CO)cc34)ccc21` [XV-8] gave an IC50 of less than 500 nM.
`Cc1cc2c(Oc3cnc4c(c3)CN(C(=O)Nc3ccc(CN5CCN(C)CC5)c(C(F)(F)F)c3)C[C@H]4C)ccnc2[nH]1` [XIV-91] gave an IC50 of less than 500 nM.
Work on `CCN1CCN(Cc2ccc(NC(=O)N3CCc4ccc(Oc5c(F)cnc6[nH]c(-c7cnn(C)c7)cc56)cc4[C@@H]3C)cc2C(F)(F)F)CC1` [XII-2] yielded an IC50 of less than 500 nM.
Work on `CCC1CN(C(=O)Nc2ccc(CN3CCN(CC)CC3)c(C(F)(F)F)c2)Cc2cc(Oc3ccnc4[nH]c(C(C)OC)cc34)cnc21` (stereo not shown) [XIV-41] yielded an IC50 of 5000 to 10000 nM.
`CCN1CCN(Cc2ccc(NC(=O)N3CCc4ccc(Oc5cc(NC(=O)C6CC6)ncc5F)cc4[C@@H]3C)cc2C(F)(F)F)CC1` [XIII-15] showed an IC50 of less than 500 nM.
With `CCN1CCN(Cc2ccc(NC(=O)N3Cc4cc(Oc5ccnc6ncc(=O)[nH]c56)cnc4C(C)C3)cc2C(F)(F)F)CC1` (single isomer, unassigned) [XIV-8] the IC50 was 500 to 5000 nM.
In the case of `CC[C@H]1CN(C(=O)Nc2cnc(CN3CCN(CC)CC3)c(C(F)(F)F)c2)Cc2cc(Oc3ccnc4[nH]ccc34)cnc21` [XIV-10], the IC50 is reported as less than 500 nM.
`CCC1CN(C(=O)Nc2ccc(CN3CCN(CC)CC3)c(C(F)(F)F)c2)Cc2cc(Oc3ccnc4[nH]c(C5CCN(C(=O)C6CC6)CC5)cc34)ccc21` (stereo not shown) [XV-40] was tested, and the IC50 was less than 500 nM.
For `CC[C@H]1CN(C(=O)Nc2ccc(CN3CCN(CCO)CC3)c(C(F)(F)F)c2)Cc2cc(Oc3ccnc4[nH]c(CO)cc34)ccc21` [XV-22], the IC50 was less than 500 nM.
Compound `CC[C@H]1CN(C(=O)Nc2ccc(CN3CCNCC3)c(C(F)(F)F)c2)Cc2cc(Oc3ccnc4[nH]c(-c5noc(C)n5)cc34)cnc21` [XIV-136] has an IC50 of less than 500 nM.
With `C[C@H]1CN(C(=O)Nc2ccc(CN3CCN(C)CC3)c(C(F)(F)F)c2)Cc2cc(Oc3ccnc4[nH]c(C(N)=O)cc34)cnc21` [XIV-86] the IC50 was less than 500 nM.
For `CC[C@H]1CN(C(=O)Nc2ccc(CN3CCN(C)CC3)c(C(F)(F)F)c2)Cc2cc(Oc3ncnn4cc(C(=O)N(C)C)cc34)cnc21` [XIV-144], the IC50 was less than 500 nM.
`CCC1CN(C(=O)Nc2ccc(CN3CCN(CC)CC3)c(C(F)(F)F)c2)Cc2cc(Oc3ccnc4[nH]c(C(C)O)cc34)cnc21` (stereo not shown) [XIV-40] showed an IC50 of less than 500 nM.
Work on `C[C@H]1CN(C(=O)Nc2ccc(CN3CCN(C)CC3)c(C(F)(F)F)c2)Cc2cc(Oc3c(F)cnc4[nH]c(C(=O)N(C)C)cc34)ccc21` [XV-39] yielded an IC50 of less than 500 nM.
Compound `CC[C@@H]1CN(C(=O)Nc2ccc(CN3CCN(CC)CC3)c(C(F)(F)F)c2)Cc2cc(Oc3ccnc4[nH]c(C#N)cc34)cnc21` [XIV-19] has an IC50 of less than 500 nM.
Compound `C[C@H]1c2cc(Oc3ccnc4[nH]c(CO)cc34)ccc2CCN1C(=O)Nc1ccc(CN2CCN(CCO)CC2)c(C(F)(F)F)c1` [XIII-5] has an IC50 of less than 500 nM.
With `CC[C@@H]1CN(C)CC[C@H]1Oc1ncc(NC(=O)N2CCc3ccc(Oc4ccnc5[nH]c(C)cc45)cc3[C@@H]2C)cc1C(F)(F)F` [XIII-1] the IC50 was less than 500 nM.
For `CCN1CCN(Cc2ccc(NC(=O)N3Cc4cc(Oc5cc(N)ncc5F)cnc4C(C)C3)cc2C(F)(F)F)CC1` (single isomer, unassigned) [XIV-18], the IC50 was 5000 to 10000 nM.
`CCN1CCN(Cc2ccc(NC(=O)N3CCc4ncc(Oc5cccc6[nH]ccc56)cc4C3C)cc2C(F)(F)F)CC1` (stereo not shown) [XI-12] was tested, and the IC50 was greater than 10000 nM.
`CC[C@@H]1CN(C(=O)Nc2ccc(CN3CCN(CC)CC3)c(C(F)(F)F)c2)Cc2cc(Oc3ccnc4[nH]c(CO)cc34)cnc21` [XIV-28] was tested, and the IC50 was less than 500 nM.

Reference: patent publication US20210139484A1, “DIHYDROISOQUINOLINE-2(1H)-CARBOXAMIDE AND RELATED COMPOUNDS AND THEIR USE IN TREATING MEDICAL CONDITIONS” (GOSSAMER BIO SERVICES, INC., priority 2018, published 2021)
